Assay results taken from the OligoGym collection.
HELM strings list units from the 5' end as sugar, base in round brackets, then linkage (d deoxyribose, r ribose, m 2'-O-methyl, p phosphodiester). Strings are as the collection lists them; they lack the last nucleoside at the 3' end of the tested compound. [moe] = 2'-O-(2-methoxyethyl) (MOE); [sp] = phosphorothioate linkage; [m5C] = 5-methylcytosine

These substances were tested against PRNP (assay: mouse, dose not given). Conditions: ASO.
Substance “RNA1{[moe](G)[sp].[moe]([m5C])p.[moe](T)p.[moe](T)p.[moe](A)[sp].d(T)[sp].d(T)[sp].d(A)[sp].d(T)[sp].d(T)[sp].d([m5C])[sp].d(A)[sp].d(T)[sp].d(G)[sp].d(T)[sp].[moe](T)p.[moe]([m5C])p.[moe](T)[sp].[moe]([m5C])}$$$$ (last 3' nucleoside missing)” has a 3 h FOB score of 3.5 score 0-7.
“RNA1{[moe](G)[sp].[moe]([m5C])p.[moe](T)p.[moe](T)p.[moe](A)[sp].d([m5C])[sp].d(T)[sp].d([m5C])[sp].d(G)[sp].d(G)[sp].d([m5C])[sp].d(T)[sp].d(T)[sp].d(G)[sp].d(T)[sp].[moe](T)p.[moe]([m5C])p.[moe]([m5C])[sp].[moe](A)}$$$$ (last 3' nucleoside missing)” was tested, and the 3 h FOB score was 5.25 score 0-7.
Substance “RNA1{[moe](G)[sp].[moe]([m5C])p.[moe](T)p.[moe](T)p.[moe](A)p.[moe](T)p.d(T)[sp].d(A)[sp].d(T)[sp].d(T)[sp].d([m5C])[sp].d(A)[sp].d(T)[sp].d(G)[sp].d(T)[sp].d(T)[sp].[moe]([m5C])p.[moe](T)[sp].[moe]([m5C])}$$$$ (last 3' nucleoside missing)” has a 3 h FOB score of 1.75 score 0-7.
Work on “RNA1{[moe](G)[sp].[moe]([m5C])p.[moe](T)p.[moe](T)p.[moe](A)p.[moe]([m5C])p.d(T)[sp].d([m5C])[sp].d(G)[sp].d(G)[sp].d([m5C])[sp].d(T)[sp].d(T)[sp].d(G)[sp].d(T)[sp].d(T)[sp].[moe]([m5C])p.[moe]([m5C])[sp].[moe](A)}$$$$ (last 3' nucleoside missing)” yielded a 3 h FOB score of 0.75 score 0-7.
In the case of “RNA1{[moe](G)[sp].[moe]([m5C])p.[moe](T)p.[moe](T)p.[moe](A)p.d(T)[sp].d(T)[sp].d(A)[sp].d(T)[sp].d(T)[sp].d([m5C])[sp].d(A)[sp].d(T)[sp].d(G)[sp].[moe](T)[sp].[moe](T)p.[moe]([m5C])p.[moe](T)}$$$$ (last 3' nucleoside missing)”, the 3 h FOB score is reported as 1 score 0-7.
With “RNA1{[moe](G)[sp].[moe]([m5C])p.[moe](T)p.[moe](T)p.[moe](A)p.d([m5C])[sp].d(T)[sp].d([m5C])[sp].d(G)[sp].d(G)[sp].d([m5C])[sp].d(T)[sp].d(T)[sp].d(G)[sp].[moe](T)[sp].[moe](T)p.[moe]([m5C])p.[moe]([m5C])}$$$$ (last 3' nucleoside missing)” the 3 h FOB score was 4.5 score 0-7.
“RNA1{[moe](G)[sp].[moe]([m5C])p.[moe](T)p.[moe](T)p.[moe](T)[sp].d(G)[sp].d(G)[sp].d(A)[sp].d(T)[sp].d([m5C])[sp].d(T)[sp].d([m5C])[sp].d(T)[sp].d(T)[sp].d(A)[sp].[moe](G)p.[moe](A)p.[moe](T)[sp].[moe](T)}$$$$ (last 3' nucleoside missing)” gave a 3 h FOB score of 0 score 0-7.
“RNA1{[moe](G)[sp].[moe]([m5C])p.[moe](T)p.[moe](T)p.[moe]([m5C])[sp].d(T)[sp].d([m5C])[sp].d(A)[sp].d(A)[sp].d(T)[sp].d(T)[sp].d(T)[sp].d(T)[sp].d(T)[sp].d([m5C])[sp].[moe]([m5C])p.[moe](A)p.[moe](A)[sp].[moe]([m5C])}$$$$ (last 3' nucleoside missing)” gave a 3 h FOB score of 0 score 0-7.
“RNA1{[moe](G)[sp].[moe]([m5C])p.[moe](T)p.[moe](T)p.d(A)[sp].d(T)[sp].d(T)[sp].d(A)[sp].d(T)[sp].d(T)[sp].d([m5C])[sp].d(A)[sp].d(T)[sp].d(G)[sp].[moe](T)p.[moe](T)p.[moe]([m5C])p.[moe](T)[sp].[moe]([m5C])}$$$$ (last 3' nucleoside missing)” was tested, and the 3 h FOB score was 1 score 0-7.
“RNA1{[moe](G)[sp].[moe]([m5C])p.[moe](T)p.[moe](T)p.d(A)[sp].d([m5C])[sp].d(T)[sp].d([m5C])[sp].d(G)[sp].d(G)[sp].d([m5C])[sp].d(T)[sp].d(T)[sp].d(G)[sp].[moe](T)p.[moe](T)p.[moe]([m5C])p.[moe]([m5C])[sp].[moe](A)}$$$$ (last 3' nucleoside missing)” showed a 3 h FOB score of 3.25 score 0-7.
For “RNA1{[moe](G)[sp].[moe]([m5C])p.[moe](T)p.[moe]([m5C])p.[moe](T)[sp].d(A)[sp].d(T)[sp].d(T)[sp].d(A)[sp].d(A)[sp].d(T)[sp].d(A)[sp].d(G)[sp].d(G)[sp].d(T)[sp].[moe](T)p.[moe](A)p.[moe](G)[sp].[moe](G)}$$$$ (last 3' nucleoside missing)”, the 3 h FOB score was 4.25 score 0-7.
Substance “RNA1{[moe](G)[sp].[moe]([m5C])p.[moe]([m5C])p.[moe](A)p.[moe](A)[sp].d(G)[sp].d(G)[sp].d(G)[sp].d(T)[sp].d(A)[sp].d(T)[sp].d(T)[sp].d(G)[sp].d(A)[sp].d(T)[sp].[moe](T)p.[moe](A)p.[moe](G)[sp].[moe]([m5C])}$$$$ (last 3' nucleoside missing)” has a 3 h FOB score of 3.5 score 0-7.
Work on “RNA1{[moe](G)[sp].[moe]([m5C])p.[moe]([m5C])p.[moe](A)p.[moe](A)[sp].d(T)[sp].d(A)[sp].d(A)[sp].d(T)[sp].d(A)[sp].d(A)[sp].d([m5C])[sp].d(A)[sp].d(T)[sp].d(T)[sp].[moe](G)p.[moe]([m5C])p.[moe](A)[sp].[moe](G)}$$$$ (last 3' nucleoside missing)” yielded a 3 h FOB score of 0 score 0-7.
In the case of “RNA1{[moe](G)[sp].[moe]([m5C])p.[moe]([m5C])p.[moe](A)p.[moe]([m5C])[sp].d(A)[sp].d(T)[sp].d(A)[sp].d(T)[sp].d(A)[sp].d(G)[sp].d(G)[sp].d(G)[sp].d(T)[sp].d([m5C])[sp].[moe]([m5C])p.[moe](T)p.[moe](T)[sp].[moe](T)}$$$$ (last 3' nucleoside missing)”, the 3 h FOB score is reported as 1.5 score 0-7.
“RNA1{[moe](G)[sp].[moe]([m5C])p.[moe]([m5C])p.[moe](A)p.[moe]([m5C])p.[moe](A)p.d(T)[sp].d(A)[sp].d(T)[sp].d(A)[sp].d(G)[sp].d(G)[sp].d(G)[sp].d(T)[sp].d([m5C])[sp].d([m5C])[sp].[moe](T)p.[moe](T)[sp].[moe](T)}$$$$ (last 3' nucleoside missing)” showed a 3 h FOB score of 4 score 0-7.
“RNA1{[moe](G)[sp].[moe]([m5C])p.[moe]([m5C])p.[moe](A)p.d([m5C])[sp].d(A)[sp].d(T)[sp].d(A)[sp].d(T)[sp].d(A)[sp].d(G)[sp].d(G)[sp].d(G)[sp].d(T)[sp].[moe]([m5C])p.[moe]([m5C])p.[moe](T)p.[moe](T)[sp].[moe](T)}$$$$ (last 3' nucleoside missing)” was tested, and the 3 h FOB score was 3.75 score 0-7.
“RNA1{[moe](G)[sp].[moe]([m5C])p.[moe]([m5C])p.[moe](T)p.[moe](T)[sp].d(A)[sp].d(A)[sp].d(T)[sp].d(T)[sp].d(A)[sp].d([m5C])[sp].d([m5C])[sp].d(T)[sp].d(A)[sp].d(T)[sp].[moe](A)p.[moe](G)p.[moe](T)[sp].[moe](T)}$$$$ (last 3' nucleoside missing)” showed a 3 h FOB score of 1 score 0-7.
With “RNA1{[moe](T)[sp].[moe](A)p.[moe](G)p.[moe](G)p.[moe]([m5C])[sp].d(T)[sp].d([m5C])[sp].d(T)[sp].d(T)[sp].d(T)[sp].d(T)[sp].d([m5C])[sp].d([m5C])[sp].d(A)[sp].d(G)[sp].[moe](G)p.[moe](T)p.[moe](G)[sp].[moe](T)}$$$$ (last 3' nucleoside missing)” the 3 h FOB score was 1 score 0-7.
“RNA1{[moe](T)[sp].[moe](A)p.[moe](T)p.[moe](G)p.[moe](T)p.d(T)[sp].d(T)[sp].d(T)[sp].d([m5C])[sp].d([m5C])[sp].d(A)[sp].d(G)[sp].d(T)[sp].d(G)[sp].[moe]([m5C])p.[moe]([m5C])p.[moe]([m5C])[sp].[moe](A)}$$$$ (last 3' nucleoside missing)” showed a 3 h FOB score of 5.25 score 0-7.
“RNA1{[moe](T)[sp].[moe](A)p.[moe]([m5C])p.[moe](T)p.[moe](T)[sp].d(G)[sp].d(T)[sp].d([m5C])[sp].d(A)[sp].d(G)[sp].d(T)[sp].d(T)[sp].d(T)[sp].d(T)[sp].d(T)[sp].[moe]([m5C])p.[moe]([m5C])p.[moe]([m5C])[sp].[moe]([m5C])}$$$$ (last 3' nucleoside missing)” was tested, and the 3 h FOB score was 4.5 score 0-7.
For “RNA1{[moe](T)[sp].[moe](A)p.[moe]([m5C])p.[moe](T)p.[moe]([m5C])[sp].d(T)[sp].d(A)[sp].d(T)[sp].d(G)[sp].d(T)[sp].d(T)[sp].d(T)[sp].d(T)[sp].d([m5C])[sp].d([m5C])[sp].[moe](A)p.[moe](G)p.[moe](T)[sp].[moe](G)}$$$$ (last 3' nucleoside missing)”, the 3 h FOB score was 1.75 score 0-7.
Work on “RNA1{[moe](T)[sp].[moe](G)p.[moe](G)p.[moe](A)p.[moe](A)[sp].d(G)[sp].d(A)[sp].d([m5C])[sp].d(T)[sp].d(T)[sp].d(G)[sp].d(T)[sp].d(G)[sp].d(T)[sp].d(T)[sp].[moe](A)p.[moe](G)p.[moe](A)[sp].[moe](T)}$$$$ (last 3' nucleoside missing)” yielded a 3 h FOB score of 6.5 score 0-7.
In the case of “RNA1{[moe](T)[sp].[moe](G)p.[moe](G)p.[moe](G)p.[moe](A)[sp].d(G)[sp].d(T)[sp].d(A)[sp].d(T)[sp].d([m5C])[sp].d(A)[sp].d(A)[sp].d(T)[sp].d(T)[sp].d(T)[sp].[moe](A)p.[moe](A)p.[moe](G)[sp].[moe]([m5C])}$$$$ (last 3' nucleoside missing)”, the 3 h FOB score is reported as 0 score 0-7.
“RNA1{[moe](T)[sp].[moe](G)p.[moe](G)p.[moe](T)p.[moe](A)[sp].d(G)[sp].d(T)[sp].d(T)[sp].d(T)[sp].d(T)[sp].d(T)[sp].d([m5C])[sp].d(A)[sp].d(A)[sp].d(A)[sp].[moe](T)p.[moe]([m5C])p.[moe](A)[sp].[moe](A)}$$$$ (last 3' nucleoside missing)” showed a 3 h FOB score of 0 score 0-7.
Substance “RNA1{[moe](T)[sp].[moe](G)p.[moe](G)p.[moe](T)p.[moe](G)[sp].d(A)[sp].d(T)[sp].d(T)[sp].d(T)[sp].d(T)[sp].d(T)[sp].d(T)[sp].d([m5C])[sp].d([m5C])[sp].d(T)[sp].[moe](T)p.[moe](T)p.[moe]([m5C])[sp].[moe](T)}$$$$ (last 3' nucleoside missing)” has a 3 h FOB score of 0 score 0-7.
“RNA1{[moe](T)[sp].[moe](G)p.[moe](G)p.[moe](T)p.[moe](G)[sp].d(T)[sp].d(T)[sp].d(A)[sp].d(T)[sp].d(A)[sp].d([m5C])[sp].d(A)[sp].d(T)[sp].d(T)[sp].d(T)[sp].[moe](A)p.[moe](G)p.[moe](G)[sp].[moe]([m5C])}$$$$ (last 3' nucleoside missing)” showed a 3 h FOB score of 1 score 0-7.
